Measurements as given in patent US11649240B2, “Substituted 4-phenylpiperidines, their preparation and use” (The Trustees of Columbia University in the City of New York, priority 2014, dated 2023).
Counter-ions that a name gives are not always drawn.

How the values were obtained:
serum RBP4 = serum RBP4 (Mus musculus (Mouse), UniProt Q00724); experiment: Serum RBP4 levels in Abca4−/− mice; type: in vivo; settings: 25 mg/kg for 12 weeks
Procedure: (§1) Abca4−/− mice have A2E levels in the ˜15-19 pmoles/eye range at 17 weeks old. Mice, starting at 17 weeks old, were treated with 25 mg/kg of Compound 81 for 12 weeks.

Abca4−/− mice = experiment: Bisretinoid accumulation in eyes of Abca4−/− mice; type: in vivo, mouse; settings: Abca4−/− mice starting at 17 weeks old, 25 mg/kg for 12 weeks
Procedure: as §1

serum RBP4 and retinol = settings: in vivo; cited from earlier work
RBP4-TTR interaction = settings: cited from earlier work

Structure (SMILES) | serum RBP4 reduction in treated mice (serum RBP4; present-tense example) | bisretinoid accumulation in Abca4−/− mouse model (Abca4−/− mice; present-tense example) | further results
O=C(c1n[nH]c2c1CCNC2)N1CCC(c2cccc(F)c2C(F)(F)F)CC1 [Compound 30, (4-(3-Fluoro-2-(trifluoromethyl)phenyl)piperidin-1-yl) (4,5,6,7-tetrahydro-1H-pyrazolo[3,4-c]pyridin-3-yl)methanone Hydrochloride] | significant serum RBP4 reduction | inhibit bisretinoid accumulation | –
O=C(c1n[nH]c2c1CCNC2)N1CCC(c2ccc(F)c(F)c2C(F)(F)F)CC1 [Compound 34] | significant serum RBP4 reduction | inhibit bisretinoid accumulation | –
O=C(c1n[nH]c2c1CNCC2)N1CCC(c2ccc(F)c(F)c2C(F)(F)F)CC1 [Compound 36, (4-(3,4-Difluoro-2-(trifluoromethyl)phenyl)piperidin-1-yl)(4,5,6,7-tetrahydro-1H-pyrazolo[4,3-c]pyridin-3-yl)methanone Trifluoroacetic Acid Salt] | significant serum RBP4 reduction | inhibit bisretinoid accumulation | –
O=C(c1n[nH]c2c1CNC2)N1CCC(c2ccc(F)c(F)c2C(F)(F)F)CC1 [Compound 38, (4-(3,4-Difluoro-2-(trifluoromethyl)phenyl)piperidin-1-yl)(1,4,5,6-tetrahydropyrrolo[3,4-c]pyrazol-3-yl)methanone Hydrochloride] | significant serum RBP4 reduction | inhibit bisretinoid accumulation | –
O=C(c1n[nH]c2c1CCNC2)N1CCC(c2cccc(F)c2Cl)CC1 [Compound 40, (4-(2-Chloro-3-fluorophenyl)piperidin-1-yl) (4,5,6,7-tetrahydro-1H-pyrazolo[3,4-c]pyridin-3-yl)methanone Hydrochloride] | significant serum RBP4 reduction | inhibit bisretinoid accumulation | –
O=C(c1n[nH]c2c1CNCC2)N1CCC(c2cccc(F)c2Cl)CC1 [Compound 42, (4-(2-Chloro-3-fluorophenyl)piperidin-1-yl)(4,5,6,7-tetrahydro-1H-pyrazolo[4,3-c]pyridin-3-yl)methanone Hydrochloride] | significant serum RBP4 reduction | inhibit bisretinoid accumulation | –
CC(=O)N1CCc2c(C(=O)N3CCC(c4ccc(F)c(F)c4C(F)(F)F)CC3)n[nH]c2C1 [Compound 81, 1-(3-(4-(3,4-Difluoro-2-(trifluoromethyl)phenyl)piperidine-1-carbonyl)-4,5-dihydro-1H-pyrazolo[3,4-c]pyridin-6 (7H)-yl)ethanone] | – | – | serum RBP4 reduction in treated mice (serum RBP4): significant serum RBP4 reduction; bisretinoid accumulation in Abca4−/− mouse model (Abca4−/− mice): inhibited bisretinoid accumulation
CC1=C(/C=C/C(C)=C/C=C/C(C)=C/C(=O)Nc2ccc(O)cc2)C(C)(C)CCC1 [fenretinide, N-(4-hydroxy-phenyl)retinamide] | – | – | ocular all-trans retinol uptake and visual cycle (serum RBP4 and retinol): inhibit ocular all-trans retinol uptake and slow down the visual cycle; disruption of RBP4-TTR interaction (RBP4-TTR interaction): disrupt the RBP4-TTR interaction
